Where a SMILES comes first, the peptide text is derived from it. The star is where a group is joined. Cbz = O=C(OCc1ccccc1)*
Columns and labels:
Mus musculus [1] = organism: Mus musculus; test: Evaluated for the percent inhibition uptake of radiolabeled thymidine as a measure of inhibition of cell division against the SV40-transformed 3T3 cells after 4 hr at the concentration of 1x10E4M; format: functional, NIH3T3
Mus musculus [2] = organism: Mus musculus; test: Evaluated for the percent inhibition uptake of radiolabeled thymidine as a measure of inhibition of cell division against the SV40-transformed 3T3 cells after 4 hr at the concentration of 6; format: functional, NIH3T3
Mus musculus [3] = organism: Mus musculus; test: Evaluated for the percent inhibition uptake of radiolabeled thymidine as a measure of inhibition of cell division against the SV40-transformed 3T3 cells after 4 hr at the concentration of 3x10E4M; format: functional, NIH3T3
Mus musculus [4] = organism: Mus musculus; test: Toxicity toward P-815 Mastocytoma cells after 5 hr was determined as percent of [51Cr]- release from labeled cells as a measure of cell death. at a concentration of 0.281 mM. (expt IV); format: functional
Mus musculus [5] = organism: Mus musculus; test: Evaluated for the percent inhibition uptake of radiolabeled leucine as a measure of inhibition of protein synthesis i.e., cell death against the SV40-transformed 3T3 cells at 4 hr at the concentration of 1Mx10E4 for expt VII; format: functional, NIH3T3
Mus musculus [6] = organism: Mus musculus; test: Evaluated for the percent inhibition uptake of radiolabeled thymidine as a measure of inhibition of cell division against the SV40-transformed 3T3 cells after 4 hr at the concentration of 1x10E4M for experiment XI; format: functional, NIH3T3
Mus musculus [7] = organism: Mus musculus; test: Toxicity toward P-815 Mastocytoma cells after 5 hr was determined as percent of [51Cr]- release from labeled cells as a measure of cell death at a concentration of 0.208 mM (expt III); format: functional
Mus musculus [8] = organism: Mus musculus; test: Evaluated for the percent inhibition uptake of radiolabeled thymidine as a measure of inhibition of cell division against the SV40-transformed 3T3 cells at 4 hr at the concentration of 1Mx10E4 for expt VI; format: functional
Mus musculus [9] = organism: Mus musculus; test: Evaluated for the percent inhibition uptake of radiolabeled thymidine as a measure of inhibition of cell division against the SV40-transformed 3T3 cells at the concentration of 3*10^-4M after 24 hr; format: functional, NIH3T3
Mus musculus [10] = organism: Mus musculus; test: Evaluated for the percent inhibition uptake of radiolabeled leucine as a measure of inhibition of protein synthesis i.e., cell death against the SV40-transformed 3T3 cells at 4 hr at the concentration of 1Mx10E4 for expt VIII; format: functional, NIH3T3
Mus musculus [11] = organism: Mus musculus; test: Toxicity toward P-815 Mastocytoma cells after 5 hr was determined as percent of [51Cr]- release from labeled cells as a measure of cell death at a concentration of 0.312 mM (expt IV); format: functional
Mus musculus [12] = organism: Mus musculus; test: Evaluated for the percent inhibition uptake of radiolabeled thymidine as a measure of inhibition of cell division against the SV40-transformed 3T3 cells at 4 hr at the concentration of 3Mx10E4 for expt VI; format: functional, NIH3T3
Mus musculus [13] = organism: Mus musculus; test: Evaluated for the percent inhibition uptake of radiolabeled leucine as a measure of inhibition of protein synthesis i.e., cell death against the SV40-transformed 3T3 cells at 4 hr at the concentration of 3Mx10E4 for expt VII; format: functional, NIH3T3
Mus musculus [14] = organism: Mus musculus; test: Evaluated for the percent inhibition uptake of radiolabeled thymidine as a measure of inhibition of cell division against the L1210 cells after 4 hr at the concentration of 1.5x10E4M; format: functional
Mus musculus [15] = organism: Mus musculus; test: Toxicity was evaluated for the compound at a concentration of 0.104 mM against […] Mastocytoma.; format: functional
Mus musculus [16] = organism: Mus musculus; test: Evaluated for the percent inhibition uptake of radiolabeled thymidine as a measure of inhibition of cell division against the SV40-transformed 3T3 cells at 4 hr at the concentration of 6Mx10E4 for expt VI; format: functional, NIH3T3
Mus musculus [17] = organism: Mus musculus; test: Evaluated for the percent inhibition uptake of radiolabeled thymidine as a measure of inhibition of cell division against the SV40-transformed 3T3 cells at 4 hr at the concentration of 4Mx10E4 for expt VII; format: functional, NIH3T3
Mus musculus [18] = organism: Mus musculus; test: Evaluated for the percent inhibition uptake of radiolabeled thymidine as a measure of inhibition of cell division against the SV40-transformed 3T3 cells at the concentration of 3*10^-4M after 3h; format: functional, NIH3T3
Mus musculus [19] = organism: Mus musculus; test: Evaluated for the percent inhibition uptake of radiolabeled thymidine as a measure of inhibition of cell division against the SV40-transformed 3T3 cells at 4 hr at the concentration of 10Mx10E4 for expt VII; format: functional, NIH3T3
Mus musculus [20] = organism: Mus musculus; test: Evaluated for the percent inhibition uptake of radiolabeled thymidine as a measure of inhibition of cell division against the L1210 cells after 4 hr at the concentration of 3.0x10E4M; format: functional
Mus musculus [21] = organism: Mus musculus; test: Evaluated for the percent inhibition uptake of radiolabeled leucine as a measure of inhibition of protein synthesis i.e., cell death against the SV40-transformed 3T3 cells at 4 hr at the concentration of 6Mx10E4 for expt VIII; format: functional, NIH3T3
Mus musculus [22] = organism: Mus musculus; test: Toxicity toward P-815 Mastocytoma cells after 5 hr was determined as percent of [51Cr]- release from labeled cells as a measure of cell death at a concentration of 0.312 mM (expt V); format: functional
Mus musculus [23] = organism: Mus musculus; test: Toxicity toward P-815 Mastocytoma cells after 5 hr was determined as percent of [51Cr]- release from labeled cells as a measure of cell death at a concentration of 0.104 mM (expt IV); format: functional
Mus musculus [24] = organism: Mus musculus; test: Evaluated for the percent inhibition uptake of radiolabeled leucine as a measure of inhibition of protein synthesis i.e., cell death against the SV40-transformed 3T3 cells at 4 hr at the concentration of 6Mx10E4 for expt VII; format: functional, NIH3T3
Mus musculus [25] = organism: Mus musculus; test: Evaluated for the percent inhibition uptake of radiolabeled thymidine as a measure of inhibition of cell division against the SV40-transformed 3T3 cells at 4 hr at the concentration of 1Mx10E4 for expt VII; format: functional, NIH3T3
Mus musculus [26] = organism: Mus musculus; test: Evaluated for the percent inhibition uptake of radiolabeled thymidine as a measure of inhibition of cell division against the SV40-transformed 3T3 cells at 4 hr at the concentration of 3Mx10E4 for expt VII; format: functional, NIH3T3
Mus musculus [27] = organism: Mus musculus; test: Evaluated for the percent inhibition uptake of radiolabeled thymidine as a measure of inhibition of cell division against the L1210 cells after 4 hr at the concentration of 0.5x10E4M; format: functional
Mus musculus [28] = organism: Mus musculus; test: Evaluated for the percent inhibition uptake of radiolabeled thymidine as a measure of inhibition of cell division against the SV40-transformed 3T3 cells after 4 hr at the concentration of 3x10E4M for experiment X; format: functional, NIH3T3
Mus musculus [29] = organism: Mus musculus; test: Evaluated for the percent inhibition uptake of radiolabeled leucine as a measure of inhibition of protein synthesis i.e., cell death against the SV40-transformed 3T3 cells at 4 hr at the concentration of 3Mx10E4 for expt VIII; format: functional, NIH3T3
Mus musculus [30] = organism: Mus musculus; test: Toxicity was evaluated for the compound at a concentration of 0.312 mM against […] Mastocytoma.; format: functional
Mus musculus [31] = organism: Mus musculus; test: Evaluated for the percent inhibition uptake of radiolabeled thymidine as a measure of inhibition of cell division against the SV40-transformed 3T3 cells at the concentration of 3*10^-4M after 8 hr; format: functional, NIH3T3
Mus musculus [32] = organism: Mus musculus; test: Evaluated for the percent inhibition uptake of radiolabeled thymidine as a measure of inhibition of cell division against the SV40-transformed 3T3 cells at 4 hr at the concentration of 6Mx10E4 for expt VII; format: functional, NIH3T3
Mus musculus [33] = organism: Mus musculus; test: Toxicity toward P-815 Mastocytoma cells after 5 hr was determined as percent of [51Cr]- release from labeled cells as a measure of cell death at a concentration of 0.208 mM (expt IV); format: functional
Mus musculus [34] = organism: Mus musculus; test: Evaluated for the percent inhibition uptake of radiolabeled thymidine as a measure of inhibition of cell division against the SV40-transformed 3T3 cells after 4 hr at the concentration of 3x10E4M for experiment XI; format: functional, NIH3T3
Mus musculus [35] = organism: Mus musculus; test: Evaluated for the percent inhibition uptake of radiolabeled thymidine as a measure of inhibition of cell division against the SV40-transformed 3T3 cells after 4 hr at the concentration of 1x10E4M for experiment X; format: functional
Mus musculus [36] = organism: Mus musculus; test: Evaluated for the percent inhibition uptake of radiolabeled thymidine as a measure of inhibition of cell division against the SV40-transformed 3T3 cells after 4 hr at the concentration of 6x10E4M for experiment X; format: functional
Mus musculus [37] = organism: Mus musculus; test: Evaluated for the percent inhibition uptake of radiolabeled thymidine as a measure of inhibition of cell division against the SV40-transformed 3T3 cells after 4 hr at the concentration of 6x10E4M for experiment XI; format: functional, NIH3T3
Mus musculus [38] = organism: Mus musculus; test: Evaluated for the percent inhibition uptake of radiolabeled thymidine as a measure of inhibition of cell division against the SV40-transformed 3T3 cells at the concentration of 3*10^-4M after 6 hr; format: functional, NIH3T3
Mus musculus [39] = organism: Mus musculus; test: Evaluated for the percent inhibition uptake of radiolabeled thymidine as a measure of inhibition of cell division against the SV40-transformed 3T3 cells at the concentration of 3*10^-4M after 4 hr; format: functional, NIH3T3
Mus musculus [40] = organism: Mus musculus; test: Toxicity was evaluated for the compound at a concentration of 0.208 mM against […] Mastocytoma.; format: functional
[41] = Compound in absence of MPM cell homogenate at pH 3 to isolate compound 4 (ng); format: ADME, cell-based
Mus musculus [42] = organism: Mus musculus; test: Toxicity was evaluated for the compound at a concentration of 0.331 mM against […] Mastocytoma.; format: functional
Mus musculus [43] = organism: Mus musculus; test: Toxicity toward P-815 Mastocytoma cells after 5 hr was determined as percent of [51Cr]- release from labeled cells as a measure of cell death. at a concentration of 0.331 mM. (expt III); format: functional
[44] = Compound treated with MPM cell homogenate at pH 4.5 to isolate compound 4 (ng); format: ADME, cell-based
MPM = test: Compound in presence of MPM cells and in absence of inactivator at pH 8 to isolate compound 4 (ng); format: cell-based
[45] = Compound in absence of MPM cell homogenate at pH 4.5 to isolate compound 4 (ng); format: ADME, cell-based
[46] = Compound in absence of MPM cell homogenate at pH 7 to isolate compound 4 (ng); format: ADME, cell-based

Compound: NCC(=O)N[C@H](Cc1ccccc1)C(=O)N(CCCl)CCCl
- Inhibition uptake (Mus musculus [1]): 5%
- Inhibition uptake (Mus musculus [2]): 60%
- Inhibition uptake (Mus musculus [3]): 16%

Compound: O=C(CNC(=O)OCc1ccccc1)N[C@@H](Cc1ccccc1)C(=O)O (Cbz-Gly-Phe-OH)
- Cr release (Mus musculus [4]): 16%

Compound: O=C(CNC(=O)OCc1ccccc1)N[C@H](Cc1ccccc1)C(=O)N(CCCl)CCCl
- Inhibition uptake (Mus musculus [5]): -1%
- Inhibition uptake (Mus musculus [6]): 36%
- Cr release (Mus musculus [7]): 29%
- Inhibition uptake (Mus musculus [8]): 7%
- Inhibition uptake (Mus musculus [9]): 88%
- Inhibition uptake (Mus musculus [10]): 5%
- Cr release (Mus musculus [11]): 34%
- Inhibition uptake (Mus musculus [12]): 60%
- Inhibition uptake (Mus musculus [13]): 10%
- Inhibition uptake (Mus musculus [14]): 57%
- Toxicity (Mus musculus [15]): 50 µg/mL
- Inhibition uptake (Mus musculus [16]): 93%
- Inhibition uptake (Mus musculus [17]): 61%
- Inhibition uptake (Mus musculus [18]): 76%
- Inhibition uptake (Mus musculus [19]): 92%
- Inhibition uptake (Mus musculus [20]): 76%
- Inhibition uptake (Mus musculus [21]): 83%
- Cr release (Mus musculus [22]): 19%
- Cr release (Mus musculus [23]): 22%
- Inhibition uptake (Mus musculus [24]): 36%
- Inhibition uptake (Mus musculus [25]): 12%
- Inhibition uptake (Mus musculus [26]): 46%
- Inhibition uptake (Mus musculus [27]): 28%
- Inhibition uptake (Mus musculus [28]): 46%
- Inhibition uptake (Mus musculus [29]): 33%
- Toxicity (Mus musculus [30]): 150 µg/mL
- Inhibition uptake (Mus musculus [31]): 86%
- Inhibition uptake (Mus musculus [32]): 70%
- Cr release (Mus musculus [33]): 27%
- Inhibition uptake (Mus musculus [34]): 36%
- Inhibition uptake (Mus musculus [35]): 14%
- Inhibition uptake (Mus musculus [36]): 90%
- Inhibition uptake (Mus musculus [37]): 75%
- Inhibition uptake (Mus musculus [38]): 83%
- Inhibition uptake (Mus musculus [39]): 80%
- Toxicity (Mus musculus [40]): 100 µg/mL

Compound: CCCCCCCCCCCCN(CC(F)(F)F)C(=O)[C@H](Cc1ccccc1)NC(=O)CNC(=O)OCc1ccccc1
- Activity [41]: 44
- Toxicity (Mus musculus [42]): 200 µg/mL
- Cr release (Mus musculus [43]): 11%
- Activity [44]: < 20
- Activity (MPM): 20
- Activity [45]: 29
- Activity [46]: 28
